Test results: patent publication EP3095787A1, “[…] ACTIVE COMPOUNDS AS DAG-LIPASE INHIBITORS” (Universiteit Leiden, priority 2015, dated 2016)

Molecular target: T1, FAAH (Mus musculus, UniProt O08914)
T1 construct: For gel based ABPP experiments mouse brain proteome (2.0 mg/mL, 20 µL) was preincubated; from tissue; host or cells: mouse brain proteome
T1 sequence (O08914 1-579): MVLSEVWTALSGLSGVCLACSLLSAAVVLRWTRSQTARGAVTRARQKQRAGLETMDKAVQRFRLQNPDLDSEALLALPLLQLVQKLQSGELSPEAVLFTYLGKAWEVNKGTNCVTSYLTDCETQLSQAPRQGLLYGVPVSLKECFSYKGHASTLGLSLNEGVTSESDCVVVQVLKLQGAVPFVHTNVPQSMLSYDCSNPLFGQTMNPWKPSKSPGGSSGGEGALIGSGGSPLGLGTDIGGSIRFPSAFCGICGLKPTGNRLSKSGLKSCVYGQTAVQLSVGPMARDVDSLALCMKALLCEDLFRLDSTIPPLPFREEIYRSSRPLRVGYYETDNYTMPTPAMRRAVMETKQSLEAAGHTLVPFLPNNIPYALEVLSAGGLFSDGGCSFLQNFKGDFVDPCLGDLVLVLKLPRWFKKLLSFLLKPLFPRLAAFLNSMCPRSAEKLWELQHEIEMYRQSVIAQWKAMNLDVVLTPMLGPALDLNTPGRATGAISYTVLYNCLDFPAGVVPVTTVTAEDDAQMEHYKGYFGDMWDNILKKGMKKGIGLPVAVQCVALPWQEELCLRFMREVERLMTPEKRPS
Experiment: Gel based competitive ABPP selectivity assay with TAMRA-FP in mouse brain proteome (FAAH band)
Format: biochemical
Details: 10 µM inhibitor; TAMRA-FP 500 nM; mouse brain proteome; vehicle set to 100%
Procedure: For gel based ABPP experiments mouse brain proteome (2.0 mg/mL, 20 µL) was preincubated for 30 min with vehicle (DMSO) or compound to be tested in 0.5 µL DMSO at rt. And subsequently treated with 500 nM (final concentration) TAMRA-FP (TAMRA-FP was bought at Thermo Fischer) for 15 minutes at rt. The reactions were quenched with 10 µL standard 3 x SDS page sample buffer. The samples were directly loaded and resolved on SDS page gel (10 % acrylamide). The gels were scanned with a ChemiDoc MP sytem (Biorad, Cy 3 settings, 605/50 filter) and analyzed using Image Lab 4.1.
The percentage effect on FAAH was determined by measuring the integrated optical intensity of the band corresponding to FAAH (∼ 63 kD for mouse) using Image lab software. This activity was corrected for the total protein loading per lane as determined by coomassie staining and imaging with a ChemiDoc™ MP sytem (Biorad) followed by determination of the integrated optical intensity per lane by using Image Lab 4.1 software. The intensity of the protein bands from the samples treated with vehicle was set to 100%. […] N/A means less than 50% probe displacement at 10 µM inhibitor concentration.

| SMILES | FAAH ABPP (10 µm) % Eff. |
| --- | --- |
| Cn1cccc1-c1cnc2nc(C(=O)CCCCCc3ccccc3)oc2c1 [Compound 46, 1-(6-(1-methyl-1H-pyrrol-2-yl)oxazolo[4,5-b]pyridin-2-yl)-6-phenylhexan-1-one] | N/A (N/A means less than 50% probe displacement at 10 µM inhibitor concentration) |
| O=C(CCCCCc1ccccc1)c1nc2ncc(-c3ccccc3F)cc2o1 [Compound 57, 1-(6-(2-fluorophenyl)oxazolo[4,5-b]pyridin-2-yl)-6-phenylhexan-1-one] | N/A (N/A means less than 50% probe displacement at 10 µM inhibitor concentration) |
| Cc1ccccc1-c1cnc2nc(C(=O)CCCCCc3ccc(F)cc3)oc2c1 [Compound 47, 6-(4-fluorophenyl)-1-(6-(o-tolyl)oxazolo[4,5-b]pyridin-2-yl)hexan-1-one] | N/A (N/A means less than 50% probe displacement at 10 µM inhibitor concentration) |
| O=C(CCCCCc1ccccc1)c1nc2ncc(-c3cccs3)cc2o1 [Compound 44, 6-phenyl-1-(6-(thiophen-2-yl)oxazolo[4,5-b]pyridin-2-yl)hexan-1-one] | N/A (N/A means less than 50% probe displacement at 10 µM inhibitor concentration) |
| Cc1ccc(-c2cnc3nc(C(=O)CCc4ccccc4)oc3c2)cc1 [Compound 35, 3-phenyl-1-(6-(p-tolyl)oxazolo[4,5-b]pyridin-2-yl)propan-1-one] | N/A (N/A means less than 50% probe displacement at 10 µM inhibitor concentration) |
| O=C(CCCCCc1ccncc1)c1nc2ncc(-c3ccccc3F)cc2o1 [Compound 48, 1-(6-(2-fluorophenyl)oxazolo[4,5-b]pyridin-2-yl)-6-(pyridin-4-yl)hexan-1-one] | N/A (N/A means less than 50% probe displacement at 10 µM inhibitor concentration) |
| COc1ccc(-c2cnc3nc(C(=O)CCCCCc4ccccc4)oc3c2)cc1 [Compound 41, 1-(6-(4-methoxyphenyl)oxazolo[4,5-b]pyridin-2-yl)-6-phenylhexan-1-one] | N/A (N/A means less than 50% probe displacement at 10 µM inhibitor concentration) |
| Cc1ccc(-c2cnc3nc(C(=O)CCCc4ccccc4)oc3c2)cc1 [Compound 36, 4-phenyl-1-(6-(p-tolyl)oxazolo[4,5-b]pyridin-2-yl)butan-1-one] | N/A (N/A means less than 50% probe displacement at 10 µM inhibitor concentration) |
| O=C(CCCCCc1ccccc1)c1nc2ncc(-c3ccccc3Cl)cc2o1 [Compound 38, 1-(6-(2-chlorophenyl)oxazolo[4,5-b]pyridin-2-yl)-6-phenylhexan-1-one] | N/A (N/A means less than 50% probe displacement at 10 µM inhibitor concentration) |
| Cc1ccc(-c2cnc3nc(C(=O)CCCCC(F)(F)F)oc3c2)cc1 [Compound 43, 6,6,6-trifluoro-1-(6-(p-tolyl)oxazolo[4,5-b]pyridin-2-yl)hexan-1-one] | N/A (N/A means less than 50% probe displacement at 10 µM inhibitor concentration) |
| O=C(CCCCCc1ccccc1)c1nc2ncc(-c3cccc(Cl)c3)cc2o1 [Compound 39, 1-(6-(3-chlorophenyl)oxazolo[4,5-b]pyridin-2-yl)-6-phenylhexan-1-one] | N/A (N/A means less than 50% probe displacement at 10 µM inhibitor concentration) |
| Cc1ccc(-c2cnc3nc(C(=O)CCC(F)(F)F)oc3c2)cc1 [Compound 42, 4,4,4-trifluoro-1-(6-(p-tolyl)oxazolo[4,5-b]pyridin-2-yl)butan-1-one] | N/A (N/A means less than 50% probe displacement at 10 µM inhibitor concentration) |
| O=C(CCCCCc1ccccc1)c1nc2ncc(-c3cccc(F)c3)cc2o1 [Compound 52, 1-(6-(3-fluorophenyl)oxazolo[4,5-b]pyridin-2-yl)-6-phenylhexan-1-one] | N/A (N/A means less than 50% probe displacement at 10 µM inhibitor concentration) |
| N#Cc1ccc(-c2cnc3nc(C(=O)CCCCCc4ccccc4)oc3c2)cc1 [Compound 51, 4-(2-(6-phenylhexanoyl)oxazolo[4,5-b]pyridin-6-yl)benzonitrile] | N/A (N/A means less than 50% probe displacement at 10 µM inhibitor concentration) |
| Cc1cccc(C)c1-c1cnc2nc(C(=O)CCCCCc3ccccc3)oc2c1 [Compound 50, 1-(6-(2,6-dimethylphenyl)oxazolo[4,5-b]pyridin-2-yl)-6-phenylhexan-1-one] | N/A (N/A means less than 50% probe displacement at 10 µM inhibitor concentration) |
| Cc1ccc(-c2cnc3nc(C(=O)Cc4ccccc4)oc3c2)cc1 [Compound 34, 2-phenyl-1-(6-(p-tolyl)oxazolo[4,5-b]pyridin-2-yl)ethan-1-one] | N/A (N/A means less than 50% probe displacement at 10 µM inhibitor concentration) |
| O=C(CCCCCc1ccccc1)c1nc2ncc(-c3nnn[nH]3)cc2o1 [Compound 45, 1-(6-(1H-tetrazol-5-yl)oxazolo[4,5-b]pyridin-2-yl)-6-phenylhexan-1-one] | N/A (N/A means less than 50% probe displacement at 10 µM inhibitor concentration) |
| Cc1cccc(-c2cnc3nc(C(=O)CCCCCc4ccccc4)oc3c2)c1 [Compound 55, 6-phenyl-1-(6-(m-tolyl)oxazolo[4,5-b]pyridin-2-yl)hexan-1-one] | N/A (N/A means less than 50% probe displacement at 10 µM inhibitor concentration) |
| O=C(CCCCCc1ccccc1)c1nc2ncc(-c3ccncc3)cc2o1 [Compound 37, 6-phenyl-1-(6-(pyridin-4-yl)oxazolo[4,5-b]pyridin-2-yl)hexan-1-one] | N/A (N/A means less than 50% probe displacement at 10 µM inhibitor concentration) |
| O=C(CCCCCc1ccccc1)c1nc2ncc(-c3ccccn3)cc2o1 [Compound 53, 6-phenyl-1-(6-(pyridin-2-yl)oxazolo[4,5-b]pyridin-2-yl)hexan-1-one] | N/A (N/A means less than 50% probe displacement at 10 µM inhibitor concentration) |
| Cc1ccccc1-c1cnc2nc(C(=O)CCCCCc3ccccc3)oc2c1 [Compound 54, 6-phenyl-1-(6-(o-tolyl)oxazolo[4,5-b]pyridin-2-yl)hexan-1-one] | N/A (N/A means less than 50% probe displacement at 10 µM inhibitor concentration) |
| Cc1ccccc1-c1cnc2nc(C(=O)CCCCOc3ccc(F)cc3)oc2c1 [Compound 49, 5-(4-fluorophenoxy)-1-(6-(o-tolyl)oxazolo[4,5-b]pyridin-2-yl)pentan-1-one] | N/A (N/A means less than 50% probe displacement at 10 µM inhibitor concentration) |
| O=C(CCCCCc1ccccc1)c1nc2ncc(-c3ccc(F)cc3)cc2o1 [Compound 58, 1-(6-(4-fluorophenyl)oxazolo[4,5-b]pyridin-2-yl)-6-phenylhexan-1-one] | N/A (N/A means less than 50% probe displacement at 10 µM inhibitor concentration) |
| O=C(CCCCCc1ccccc1)c1nc2ncc(-c3ccc(Cl)cc3)cc2o1 [Compound 40, 1-(6-(4-chlorophenyl)oxazolo[4,5-b]pyridin-2-yl)-6-phenylhexan-1-one] | N/A (N/A means less than 50% probe displacement at 10 µM inhibitor concentration) |
